Earlier results, collected in EP1121935B1, “Pharmaceutical composition containing a small or medium size peptide” (Patents Exploitation Company B.V., priority 2000, dated 2001).

Key:
[1] = solutions free from preservative; polystyrene, polypropylene and glass tubes; 24 hours at room temperature
[2] = tested on: nasal ciliar motility; settings: reported by Hofmann T. et al., 1998

Row | loss of active principle because of the adsorption by the walls [1] | Substance | effect on nasal ciliar motility [2]
1 | about the half | 1-(3-mercaptopropanoic acid)-8-D-argininevasopressin [desmopressin] | 
2 |  | benzalkonium chloride | irreversible suppression of the nasal ciliar motility
